The assay concerns the target T1, VAV1 (Homo sapiens, UniProt P15498+Q96SW2).
T1 construct: A heterozygous VAV1 C-terminal HiBiT knock-in pool was generated at Monte Rosa Therapeutics from a clonal Jurkat cell; endogenous in cells; host or cells: Jurkat clone stably expressing LgBiT, homozygous GSPT1-G575N; heterozygous VAV1-HiBiT knock-in pool
Nature of the assay: VAV1 degradation activity, VAV1-HiBiT knock-in Jurkat luminescence assay (Example A, Table 1). The class given is cell-based. As to conditions: VAV1-HiBiT knock-in Jurkat cells, luminescence read at 6 and 24 hours; for Dmax: Jurkat. How it is done:
Cells were plated at 10,000 cells per well using Multiflo (BioTek) or Multi Drop Combi (Thermo Fisher) in 384-well white solid bottom plates (Corning, 3570BC) in 25 ul volume in RPMI 1640 media (Thermo Fischer, 22400105) containing 10% FBS (Corning, 35-075-CV), 1% Penicillin/Streptomycin (ThermoFisher Scientific, 15140-122), and 1% Endurazine (Nano-Glo Endurazine Live Cell Substrate (Promega, N2571)). Cells were incubated for ˜16 hours at 37° C., 5% CO2. 25 nL of a compound at 10 μM were dosed into the plate using an Echo® 650 liquid handler (Labcyte). Cells were incubated at 37° C., 5% CO2 and signal was read at 6 and 24 hours after compound addition on a Pherastar FSX using “LUM plus” optic module.
Analysis was performed in Scinamic (Scinamic, Cambridge, MA). Luminescence response (R) was calculated by the formula: response=100*(S−N)/(P−N) where S is the signal of the well, N and P the mean negative and positive control values respectively of the same plate. The luminescence response was then fitted in Scinamic using a 3-parameter agonist logistic fit (hillslope=1, EC50>0, top/bottom unconstrained).

The mark [1] stands for this setting: read-out: VAV1 DC50 (nM), class.

The source of these data is patent publication US12257247B2 (Monte Rosa Therapeutics AG, priority 2023, dated 2025).

The structures appear in SMILES notation. Where two headings read alike, the source gives them in different places. Where only a bound is given, the exact number is not on record here.

As to `CC(C)Nc1ccc(-c2cccc(C3CCC(=O)NC3=O)c2Cl)cc1` (stereo not shown) [Compound 129, 3-(2-chloro-4′-(isopropylamino)-[1,1′-biphenyl]-3-yl)piperidine-2,6-dione], the Dmax (usually the greatest extent of degradation seen) runs as follows: (read-out: VAV1 Dmax %) 68.2%; (read-out: VAV1 Dmax %, class) 60 to 90%. Besides, the DC50 (usually the midpoint of the concentration-degradation curve) (read-out: VAV1 DC50) was 240 nM and the DC50 under setting [1] is 100 to 1000 nM.
On the same counts, the results for `Nc1ccc(-c2cccc(C3CCC(=O)NC3=O)c2Cl)cc1` (stereo not shown) [Compound 130, 3-(4′-amino-2-chloro-[1,1′-biphenyl]-3-yl)piperidine-2,6-dione] are 84.6%, 60 to 90%, 37.1 nM and no more than 100 nM.
On the same counts, the results for `Cc1cc(-c2cccc(C3CCC(=O)NC3=O)c2Cl)ccc1N` (stereo not shown) [Compound 131] are 94.9%, greater than 90%, 7.27 nM and no more than 100 nM.
For `COc1cc(-c2cccc(C3CCC(=O)NC3=O)c2Cl)ccc1C` (stereo not shown) [Compound 132], the Dmax is, setting by setting: (read-out: VAV1 Dmax %) 84.5%; (read-out: VAV1 Dmax %, class) 60 to 90%. In addition, the DC50 by setting is: (read-out: VAV1 DC50) 475 nM; under setting [1], 100 to 1000 nM.
On the same counts, the results for `N#Cc1ccc(-c2cccc(C3CCC(=O)NC3=O)c2Cl)cc1N` (stereo not shown) [Compound 133] are 79%, 60 to 90%, 427 nM and 100 to 1000 nM.
For the molecule `CNc1ccc(-c2cccc(C3CCC(=O)NC3=O)c2Cl)cc1` (stereo not shown) [Compound 134, 3-(2-chloro-4′-(methylamino)-[1,1′-biphenyl]-3-yl)piperidine-2,6-dione], the “VAV1 Dmax %” value was 76.45%. Also, for the setting “read-out: VAV1 Dmax %”, the Dmax was found to be 85.7%. Further, under “read-out: VAV1 Dmax %, class”, the Dmax was greater than 90%. Further, the half-maximal degradation concentration (DC50) (read-out: VAV1 DC50) was determined as 90.9 nM.
As to `CN(C)CCOc1ccc(-c2cccc(C3CCC(=O)NC3=O)c2Cl)cc1` (stereo not shown) [Compound 135], the Dmax is 34.9% (read-out: VAV1 Dmax %) and less than 60% (read-out: VAV1 Dmax %, class). The DC50 by setting is: (read-out: VAV1 DC50) no less than 10000 nM; under setting [1], greater than 1000 nM.
As for `O=C1CCC(c2cccc(-c3ccc(OCCN4CCCC4)cc3)c2Cl)C(=O)N1` (stereo not shown) [Compound 136], the Dmax (read-out: VAV1 Dmax %) came out at 40.9% and the Dmax (read-out: VAV1 Dmax %, class) was less than 60%. Further, the DC50 reads like this: (read-out: VAV1 DC50) no less than 10000 nM; under setting [1], greater than 1000 nM.
For `COc1cc(OC(F)F)ccc1-c1cccc(C2CCC(=O)NC2=O)c1Cl` (stereo not shown) [Compound 137], the Dmax reads like this: (read-out: VAV1 Dmax %) 63.8%; (read-out: VAV1 Dmax %, class) 60 to 90%. Further, the DC50 is, setting by setting: (read-out: VAV1 DC50) 7440 nM; under setting [1], greater than 1000 nM.
On to `Nc1cc(-c2cccc(C3CCC(=O)NC3=O)c2Cl)ccc1Cl` (stereo not shown) [Compound 138], for which the Dmax (read-out: VAV1 Dmax %) is 84.6% and the Dmax (read-out: VAV1 Dmax %, class) was 60 to 90%. The DC50 by setting is: (read-out: VAV1 DC50) 604 nM; under setting [1], 100 to 1000 nM.
As to `COc1ccc(-c2cccc(C3CCC(=O)NC3=O)c2Cl)cc1C#N` (stereo not shown) [Compound 139], the Dmax runs as follows: (read-out: VAV1 Dmax %) 25.2%; (read-out: VAV1 Dmax %, class) less than 60%. The DC50 is, setting by setting: (read-out: VAV1 DC50) no less than 10000 nM; under setting [1], greater than 1000 nM.
Turning to `O=C1CCC(c2cccc(-c3ccc(Cn4ccnc4)cc3)c2Cl)C(=O)N1` (stereo not shown) [Compound 140, 3-(4′-((1H-imidazol-1-yl)methyl)-2-chloro-[1,1′-biphenyl]-3-yl)piperidine-2,6-dione], the Dmax runs as follows: (read-out: VAV1 Dmax %) 83.8%; (read-out: VAV1 Dmax %, class) 60 to 90%. Also, the DC50 reads like this: (read-out: VAV1 DC50) 52.2 nM; under setting [1], no more than 100 nM.
On the same counts, the results for `O=C1CCC(c2cccc(-c3ccc(OCC4CCOC4)cc3)c2Cl)C(=O)N1` (stereo not shown) [Compound 141] are 87.6%, 60 to 90%, 99.2 nM and no more than 100 nM.
As to `N#Cc1ccc(-c2cccc(C3CCC(=O)NC3=O)c2Cl)cc1` (stereo not shown) [Compound 142], the Dmax is 69.9% (read-out: VAV1 Dmax %) and 60 to 90% (read-out: VAV1 Dmax %, class). The DC50 was 705 nM (read-out: VAV1 DC50) and 100 to 1000 nM under setting [1].
In the case of `O=C1CCC(c2c(F)ccc(-c3ccc(Cn4ccccc4=O)cc3)c2Cl)C(=O)N1` (stereo not shown) [Compound 143, 3-(2-chloro-4-fluoro-4′-((2-oxopyridin-1(2H)-yl)methyl)-[1,1′-biphenyl]-3-yl)piperidine-2,6-dione], the Dmax reads like this: (read-out: VAV1 Dmax %) 55%; (read-out: VAV1 Dmax %, class) less than 60%. Besides, the DC50 (read-out: VAV1 DC50) was 6160 nM and the DC50 under setting [1] is greater than 1000 nM.
On the same counts, the results for `Cn1ccc(COc2ccc(-c3ccc(F)c(C4CCC(=O)NC4=O)c3Cl)cc2)n1` (stereo not shown) [Compound 144, 3-(2-chloro-4-fluoro-4′-((1-methyl-1H-pyrazol-3-yl)methoxy)-[1,1′-biphenyl]-3-yl)piperidine-2,6-dione] are 65.3%, 60 to 90%, 248 nM and 100 to 1000 nM.
For `Cn1ccc(COc2ccc(-c3ccc(Cl)c(C4CCC(=O)NC4=O)c3F)cc2)n1` (stereo not shown) [Compound 145, 3-(4-chloro-2-fluoro-4′-((1-methyl-1H-pyrazol-3-yl)methoxy)-[1,1′-biphenyl]-3-yl)piperidine-2,6-dione], in that order: 55.5%, less than 60%, 13800 nM and greater than 1000 nM.
For `Cn1ccc(COc2ccc(-c3ccc(Cl)c(C4CCC(=O)NC4=O)c3Cl)cc2)n1` (stereo not shown) [Compound 146, 3-(2,4-dichloro-4′-((1-methyl-1H-pyrazol-3-yl)methoxy)-[1,1′-biphenyl]-3-yl)piperidine-2,6-dione], the Dmax (read-out: VAV1 Dmax %) was determined as 81.5% and the Dmax (read-out: VAV1 Dmax %, class) is 60 to 90%. The DC50 (read-out: VAV1 DC50) is 8400 nM and the DC50 under setting [1] is greater than 1000 nM.
Take `O=C1CCC(c2c(F)ccc(-c3ccc(Cn4ccccc4=O)cc3)c2F)C(=O)N1` (stereo not shown) [Compound 147, 3-(2,4-difluoro-4′-((2-oxopyridin-1(2H)-yl)methyl)-[1,1′-biphenyl]-3-yl)piperidine-2,6-dione]: the “VAV1 Dmax %” value was 33.28%. For the setting “read-out: VAV1 Dmax %”, the Dmax worked out at 33.3%. For the setting “read-out: VAV1 Dmax %, class”, the Dmax was less than 60%. For the same molecule, the DC50 (read-out: VAV1 DC50) is no less than 10000 nM. Besides, under setting [1], the DC50 is greater than 1000 nM.
In the case of `COc1ccc(-c2ccc(F)c(C3CCC(=O)NC3=O)c2F)cc1C` (stereo not shown) [Compound 148], the Dmax (read-out: VAV1 Dmax %) was 21.4% and the Dmax (read-out: VAV1 Dmax %, class) was less than 60%. Moreover, the DC50 by setting is: (read-out: VAV1 DC50) no less than 10000 nM; under setting [1], greater than 1000 nM.
Turning to `O=C1CCC(c2cccc(-c3ccc(Cn4ccccc4=O)cc3)c2F)C(=O)N1` (stereo not shown) [Compound 149, 3-(2-fluoro-4′-((2-oxopyridin-1(2H)-yl)methyl)-[1,1′-biphenyl]-3-yl)piperidine-2,6-dione], the Dmax (read-out: VAV1 Dmax %) was 89.6% and the Dmax (read-out: VAV1 Dmax %, class) is 60 to 90%. For the same molecule, the DC50 by setting is: (read-out: VAV1 DC50) 91.5 nM; under setting [1], no more than 100 nM.
For `Cn1ccc(COc2ccc(-c3cccc(C4CCC(=O)NC4=O)c3F)cc2)n1` (stereo not shown) [Compound 150, 3-(2-fluoro-4′-((1-methyl-1H-pyrazol-3-yl)methoxy)-[1,1′-biphenyl]-3-yl)piperidine-2,6-dione], in that order: 84.2%, 60 to 90%, 48 nM and no more than 100 nM.
For `Cn1ccc(COc2ccc(-c3cccc(C4CCC(=O)NC4=O)c3)cc2)n1` (stereo not shown) [Compound 151, 3-(4′-((1-methyl-1H-pyrazol-3-yl)methoxy)-[1,1′-biphenyl]-3-yl)piperidine-2,6-dione], in that order: 39.8%, less than 60%, no less than 10000 nM and greater than 1000 nM.
On the same counts, the results for `Cc1cc(OCc2ccn(C)n2)ccc1-c1ccc(Cl)c(C2CCC(=O)NC2=O)c1` (stereo not shown) [Compound 152] are 8.11%, less than 60%, no less than 10000 nM and greater than 1000 nM.
Consider `Cn1ccc(COc2ccc(-c3ccc(Cl)c(C4CCC(=O)NC4=O)c3)c(Cl)c2)n1` (stereo not shown) [Compound 153, 3-(2′,4-dichloro-4′-((1-methyl-1H-pyrazol-3-yl)methoxy)-[1,1′-biphenyl]-3-yl)piperidine-2,6-dione], for which the Dmax is 1.26% (read-out: VAV1 Dmax %) and less than 60% (read-out: VAV1 Dmax %, class). For the same molecule, the DC50 is no less than 10000 nM (read-out: VAV1 DC50) and greater than 1000 nM under setting [1].
On the same counts, the results for `Cn1ccc(COc2ccc(-c3cccc(C4CCC(=O)NC4=O)c3Cl)cc2)n1` (stereo not shown) [Compound 154, 3-(2-chloro-4′-((1-methyl-1H-pyrazol-3-yl)methoxy)-[1,1′-biphenyl]-3-yl)piperidine-2,6-dione] are 97%, greater than 90%, 18.7 nM and no more than 100 nM.
Take `Cc1cc(-c2cccc(C3CCC(=O)NC3=O)c2Cl)ccc1OCCN1CCOCC1` (stereo not shown) [Compound 155, 3-(2-chloro-3′-methyl-4′-(2-morpholinoethoxy)-[1,1′-biphenyl]-3-yl)piperidine-2,6-dione]: the Dmax (read-out: VAV1 Dmax %) was 92.7% and the Dmax (read-out: VAV1 Dmax %, class) was greater than 90%. Moreover, the DC50 runs as follows: (read-out: VAV1 DC50) 14.9 nM; under setting [1], no more than 100 nM.
